# Key:
# Mus musculus [1] = assay: Anti-inflammatory activity in Mus musculus BALB/c (mouse) assessed as carrageenan-induced paw swelling at 200 mg/kg, po administered 1 hr followed by carrageenan challenge measured at 90 min (reference value: 39 +/- 5.6 x 10^-2 mm); assay type: functional
# Mus musculus [2] = assay: Anti-inflammatory activity in Mus musculus BALB/c (mouse) assessed as inhibition of carrageenan-induced paw swelling at 100 mg/kg, po administered 1 hr followed by carrageenan challenge measured at 180 min relative to control; assay type: functional
# Mus musculus [3] = assay: Anti-inflammatory activity in Mus musculus BALB/c (mouse) assessed as carrageenan-induced paw swelling at 50 mg/kg, po administered 1 hr followed by carrageenan challenge measured at 90 min (reference value: 39 +/- 5.6 x 10^-2 mm); assay type: functional
# Mus musculus [4] = assay: Antioxidant activity in Mus musculus BALB/c (mouse) stomach assessed as TBARS level at 100 mg/kg, po (reference value: 80.4 +/- 5.4 nmol/g ); assay type: functional
# Mus musculus [5] = assay: Anti-inflammatory activity in Mus musculus BALB/c (mouse) assessed as carrageenan-induced paw swelling at 200 mg/kg, po administered 1 hr followed by carrageenan challenge measured at 360 min (reference value: 105 +/- 4.5 x 10^-2 mm); assay type: functional
# Mus musculus [6] = assay: Anti-inflammatory activity in Mus musculus BALB/c (mouse) assessed as inhibition of carrageenan-induced paw swelling at 100 mg/kg, po administered 1 hr followed by carrageenan challenge measured at 270 min relative to control; assay type: functional
# Mus musculus [7] = assay: Toxicity in Mus musculus BALB/c (mouse) assessed as mortality at 50 to 200 mg/kg, po after 72 hr; assay type: organism-based; parameters: dose 50-200 mg/kg, route oral; conditions: in vivo
# Mus musculus [8] = assay: Anti-inflammatory activity in Mus musculus BALB/c (mouse) assessed as carrageenan-induced paw swelling at 50 mg/kg, po administered 1 hr followed by carrageenan challenge measured at 360 min (reference value: 105 +/- 4.5 x 10^-2 mm); assay type: functional
# Mus musculus [9] = assay: Anti-inflammatory activity in Mus musculus BALB/c (mouse) assessed as carrageenan-induced paw swelling at 100 mg/kg, po administered 1 hr followed by carrageenan challenge measured at 180 min (reference value: 52 +/- 4.6 x 10^-2 mm); assay type: functional
# Mus musculus [10] = assay: Anti-inflammatory activity in Mus musculus BALB/c (mouse) assessed as carrageenan-induced paw swelling at 100 mg/kg, po administered 1 hr followed by carrageenan challenge measured at 90 min (reference value: 39 +/- 5.6 x 10^-2 mm); assay type: functional
# Mus musculus [11] = assay: Anti-inflammatory activity in Mus musculus BALB/c (mouse) assessed as carrageenan-induced paw swelling at 100 mg/kg, po administered 1 hr followed by carrageenan challenge measured at 270 min (reference value: 78 +/- 8.4 x 10^-2 mm); assay type: functional
# Mus musculus [12] = assay: Anti-inflammatory activity in Mus musculus BALB/c (mouse) assessed as carrageenan-induced paw swelling at 200 mg/kg, po administered 1 hr followed by carrageenan challenge measured at 270 min (reference value: 78 +/- 8.4 x 10^-2 mm); assay type: functional
# Mus musculus [13] = assay: Anti-inflammatory activity in Mus musculus BALB/c (mouse) assessed as carrageenan-induced paw swelling at 50 mg/kg, po administered 1 hr followed by carrageenan challenge measured at 180 min (reference value: 52 +/- 4.6 x 10^-2 mm); assay type: functional
# Mus musculus [14] = assay: Anti-inflammatory activity in Mus musculus BALB/c (mouse) assessed as carrageenan-induced paw swelling at 100 mg/kg, po administered 1 hr followed by carrageenan challenge measured at 360 min (reference value: 105 +/- 4.5 x 10^-2 mm); assay type: functional
# Mus musculus [15] = assay: Anti-inflammatory activity in Mus musculus BALB/c (mouse) assessed as carrageenan-induced paw swelling at 200 mg/kg, po administered 1 hr followed by carrageenan challenge measured at 180 min (reference value: 52 +/- 4.6 x 10^-2 mm); assay type: functional
# Mus musculus [16] = assay: Toxicity in Mus musculus BALB/c (mouse) assessed as behavioral changes at 50 to 200 mg/kg, po after 72 hr; assay type: organism-based; parameters: dose 50-200 mg/kg, route oral; conditions: in vivo
# Mus musculus [17] = assay: Anti-inflammatory activity in Mus musculus BALB/c (mouse) assessed as inhibition of carrageenan-induced paw swelling at 100 mg/kg, po administered 1 hr followed by carrageenan challenge measured at 360 min relative to control; assay type: functional
# Mus musculus [18] = assay: Anti-inflammatory activity in Mus musculus BALB/c (mouse) assessed as carrageenan-induced paw swelling at 50 mg/kg, po administered 1 hr followed by carrageenan challenge measured at 270 min (reference value: 78 +/- 8.4 x 10^-2 mm); assay type: functional
# Mus musculus [19] = assay: Analgesic activity in Mus musculus BALB/c (mouse) assessed as inhibition of acetic acid-induced writhing at 100 mg/kg, po administered 1 hr followed by acetic acid challenge measured for 10 min; assay type: functional
# Mus musculus [20] = assay: Anti-inflammatory activity in Mus musculus BALB/c (mouse) assessed as inhibition of carrageenan-induced paw swelling at 50 mg/kg, po administered 1 hr followed by carrageenan challenge measured at 270 min relative to control; assay type: functional
# Mus musculus [21] = assay: Anti-inflammatory activity in Mus musculus BALB/c (mouse) assessed as inhibition of carrageenan-induced paw swelling at 50 mg/kg, po administered 1 hr followed by carrageenan challenge measured at 360 min relative to control; assay type: functional
# Mus musculus [22] = assay: Anti-inflammatory activity in Mus musculus BALB/c (mouse) assessed as inhibition of carrageenan-induced paw swelling at 200 mg/kg, po administered 1 hr followed by carrageenan challenge measured at 360 min relative to control; assay type: functional
# Mus musculus [23] = assay: Anti-inflammatory activity in Mus musculus BALB/c (mouse) assessed as inhibition of carrageenan-induced paw swelling at 200 mg/kg, po administered 1 hr followed by carrageenan challenge measured at 270 min relative to control; assay type: functional
# Mus musculus [24] = assay: Anti-inflammatory activity in Mus musculus BALB/c (mouse) assessed as inhibition of carrageenan-induced paw swelling at 200 mg/kg, po administered 1 hr followed by carrageenan challenge measured at 180 min relative to control; assay type: functional
Structure (SMILES),Activity (Mus musculus [1]) [×10⁻² mm],inhibition in vivo at 100 mg/kg (Mus musculus [2]) [%],Activity (Mus musculus [3]) [×10⁻² mm],Activity (Mus musculus [4]) [nmol/g],Activity (Mus musculus [5]) [×10⁻² mm],inhibition in vivo at 100 mg/kg (Mus musculus [6]) [%],Activity (Mus musculus [7]),Activity (Mus musculus [8]) [×10⁻² mm],Activity (Mus musculus [9]) [×10⁻² mm],Activity (Mus musculus [10]) [×10⁻² mm],Activity (Mus musculus [11]) [×10⁻² mm],Activity (Mus musculus [12]) [×10⁻² mm],Activity (Mus musculus [13]) [×10⁻² mm],Activity (Mus musculus [14]) [×10⁻² mm],Activity (Mus musculus [15]) [×10⁻² mm],Activity (Mus musculus [16]),inhibition in vivo at 100 mg/kg (Mus musculus [17]) [%],Activity (Mus musculus [18]) [×10⁻² mm],inhibition in vivo at 100 mg/kg (Mus musculus [19]) [%],inhibition in vivo at 50 mg/kg (Mus musculus [21]) [%],also measured
CCOC(=O)Cc1csc2nc(-c3ccccc3)nn12,35.2,23.1,76.3,174.1,105.4,31.1,Non-toxic,102,40,45,53.7,75,53.5,87.5,48.1,Non-toxic,16.7,79.7,–,–,–
CCOC(=O)Cc1csc2nc(Cc3cc(OC)c(OC)c(OC)c3)nn12,38,37.9,55.1,157.1,93.4,–,Non-toxic,87.2,32.3,40.8,105,70.3,46,129.5,42.5,Non-toxic,–,61.3,62.8,16.9,inhibition in vivo at 50 mg/kg (Mus musculus [20]): 21.4%
CCOC(=O)c1sc2nc(-c3ccc(Cl)cc3)nn2c1C,35.7,17.7,66.1,116.9,98.3,–,Non-toxic,117.8,42.8,45.5,69.9,69.6,70,75.4,45.7,Non-toxic,28.2,91.1,89.7,–,–
COc1ccc(CCC2=NC(=S)N=N2)cc1,42.1,51.3,50,116.2,87.6,30.8,Non-toxic,78.2,25.3,36.3,54,66.3,46.8,80.5,46.4,Non-toxic,23.3,73.6,24.3,25.5,inhibition in vivo at 200 mg/kg (Mus musculus [22]): 16.6%; inhibition in vivo at 200 mg/kg (Mus musculus [23]): 15%
COc1cc(CC2=NC(=S)N=N2)cc(OC)c1OC,45.6,18.3,35.6,115.1,104.5,23.1,Non-toxic,77.3,42.5,36.2,60,77,46,65,49.8,Non-toxic,38.1,57.8,–,26.4,inhibition in vivo at 50 mg/kg (Mus musculus [20]): 25.9%
CCOC(=O)Cc1csc2nc(-c3cc(Cl)cc(Cl)c3)nn12,41.6,–,70.4,200.1,83.1,16.7,Non-toxic,96,66.2,40,65,61.3,49,60,43,Non-toxic,42.8,78,35.9,–,inhibition in vivo at 200 mg/kg (Mus musculus [24]): 17.3%; inhibition in vivo at 200 mg/kg (Mus musculus [22]): 20.8%; inhibition in vivo at 200 mg/kg (Mus musculus [23]): 21.4%
CCOC(=O)Cc1csc2nc(-c3ccc(OC)cc3)nn12,43.7,24.4,71.2,128.7,110.8,–,Non-toxic,96.1,38.3,47.9,90,79,65.4,122.5,52.2,Non-toxic,–,76.2,24.3,–,–
Sc1n[nH]c(-c2ccccc2)n1,45.8,27.1,39.8,88.4,105.4,–,Non-toxic,89.1,36.9,44.3,111,74.3,34.9,126,51.7,Non-toxic,–,61.3,35.9,15.1,inhibition in vivo at 50 mg/kg (Mus musculus [20]): 21.4%
CC(=O)Oc1ccccc1C(=O)O [ASPIRIN],–,–,–,121,–,–,Non-toxic,–,–,–,–,–,–,–,–,Non-toxic,–,–,50,–,–

# — ChEMBL document CHEMBL3046590, “Design and synthesis of some thiazolotriazolyl esters as anti-inflammatory and analgesic agents” (Med Chem Res, 2012)
